Experimental data taken from patent US11264117B2, “Neoantigen identification using hotspots” (Gritstone bio, Inc., priority 2017, dated 2022).
Ends that are not written are not given here.

System: IFNγ-producing T-cells
Experiment: IFN-gamma ELISpot on in vitro expanded (IVS) NSCLC patient PBMCs with patient-specific neoantigen peptide pools or individual peptides
Assay type: cell-based, human
Settings: NSCLC patient PBMCs after IVS culture
Description: To do so, archival FFPE tumor biopsies and 5-30 ml of peripheral blood were analyzed from 9 patients with metastatic NSCLC undergoing anti-PD(L)1 therapy (Supplementary Table 2: Patient demographics and treatment information for N=9 patients studied in FIGS. 17A-C. Key fields include tumor stage and subtype, anti-PD1 therapy received, and summary of NGS results.). […] The full MS model was applied to prioritize 20 neoepitopes per patient for testing against pre-existing anti-tumor T-cell responses. To focus the analysis on likely CD8 responses, the prioritized peptides were synthesized as 8-11mer minimal epitopes (Methods), and then peripheral blood mononuclear cells (PBMCs) were cultured with the synthesized peptides in short in vitro stimulation (IVS) cultures to expand neoantigen-reactive T-cells (Supplementary Table 3). After two weeks the presence of antigen-specific T-cells was assessed using IFN-gamma ELISpot against the prioritized neoepitopes. In seven patients for whom sufficient PBMCs were available, separate experiments were also performed to fully or partially deconvolve the specific antigens recognized. The results are depicted in FIGS. 17A-C and 18A-21.
FIG. 17A depicts detection of T-cell responses to patient-specific neoantigen peptide pools for nine patients. […]

GTKKDVDVLK
T-cell recognition of individual peptide: recognized by CD8 T-cells
